Measured values reported in ChEMBL document CHEMBL1134025, “Thiosugars. Part 9: synthesis and biological evaluation of some 4'-thio-L-arabino nucleoside analogues” (2001).
In brackets after ≈: the same amount, converted by molar mass. Activity calls are given as the source filed them. The rule behind the calls is not given here.

What was measured:
[1] = test system: Coxsackievirus B4; assay: Cytotoxicity was evaluated against Coxsackie B4 virus at 200-400 uM; IA=inactive; assay type: functional, organism-based
[2] = test system: Human betaherpesvirus 5; assay: Cytotoxicity was evaluated against HCMV at 200-400 uM; IA=inactive; assay type: functional, organism-based
[3] = test system: Human immunodeficiency virus 1; assay: Cytotoxicity was evaluated against HIV-1 at 200-400 uM; IA=inactive; assay type: functional, organism-based
[4] = test system: Human alphaherpesvirus 2; assay: Cytotoxicity was evaluated against HSV-2 at 200-400 uM; IA=inactive; assay type: functional, organism-based
[5] = test system: Human immunodeficiency virus 2; assay: Cytotoxicity was evaluated against HIV-2 at 200-400 uM; IA=inactive; assay type: functional, organism-based
[6] = test system: Human alphaherpesvirus 1; assay: Cytotoxicity was evaluated against HSV-1 at 200-400 uM; IA=inactive; assay type: functional, organism-based
[7] = test system: Human respirovirus 3; assay: Cytotoxicity was evaluated against Parainfluenza-3 virus at 200-400 uM; IA=inactive; assay type: functional, organism-based
[8] = test system: Punta Toro virus; assay: Cytotoxicity was evaluated against Punta Toro virus at 200-400 uM; IA=inactive; assay type: functional, organism-based
[9] = test system: Mammalian orthoreovirus 1; assay: Cytotoxicity was evaluated against Reo virus-1 at 200-400 uM; IA=inactive; assay type: functional, organism-based; conditions: reo virus type 1
[10] = test system: Respiratory syncytial virus; assay: Cytotoxicity was evaluated against Respiratory syncytial virus at 200-400 uM; IA=inactive; assay type: functional, organism-based
[11] = test system: Sindbis virus; assay: Cytotoxicity was evaluated against Sindbis virus at 200-400 uM; IA=inactive; assay type: functional, organism-based
[12] = test system: Human alphaherpesvirus 3; assay: Cytotoxicity was evaluated against VZV at 200-400 uM; IA=inactive; assay type: functional, organism-based
[13] = test system: Vesicular stomatitis virus
[14] = test system: Vaccinia virus; conditions: Orthopoxvirus vaccinia
[15] = test system: Coxsackievirus B4; assay: Minimum inhibitory concentration required to reduce Coxsackie B4 virus induced cytopathogenicity by 50%; assay type: functional; conditions: Enterovirus B
[16] = test system: Human immunodeficiency virus 1; assay: Minimum inhibitory concentration required to reduce HIV-1 induced cytopathogenicity by 50%; assay type: functional
[17] = test system: Human betaherpesvirus 5; assay: Minimum inhibitory concentration required to reduce HCMV induced cytopathogenicity by 50%; assay type: functional
[18] = test system: Human alphaherpesvirus 1; assay: Minimum inhibitory concentration required to reduce HSV-1 induced cytopathogenicity by 50%; assay type: functional
[19] = test system: Human alphaherpesvirus 2; assay: Minimum inhibitory concentration required to reduce HSV-2 induced cytopathogenicity by 50%; assay type: functional
[20] = test system: Human respirovirus 3; assay: Minimum inhibitory concentration required to reduce Parainfluenza-3 virus induced cytopathogenicity by 50%; assay type: functional
[21] = test system: Punta Toro virus; assay: Minimum inhibitory concentration required to reduce Punta Toro virus induced cytopathogenicity by 50%; assay type: functional
[22] = test system: Mammalian orthoreovirus 1; assay: Minimum inhibitory concentration required to reduce Reo virus-1 induced cytopathogenicity by 50%; assay type: functional, reo virus type 1
[23] = test system: Respiratory syncytial virus; assay: Minimum inhibitory concentration required to reduce Respiratory syncytial virus induced cytopathogenicity by 50%; assay type: functional; conditions: human respiratory syncytial virus
[24] = test system: Sindbis virus; assay: Minimum inhibitory concentration required to reduce Sindbis virus induced cytopathogenicity by 50%; assay type: functional
[25] = test system: Vesicular stomatitis virus; assay: Minimum inhibitory concentration required to reduce Vesicular stomatitis virus induced cytopathogenicity by 50%; assay type: functional
[26] = test system: Human alphaherpesvirus 3; assay: Minimum inhibitory concentration required to reduce VZV induced cytopathogenicity by 50%; assay type: functional
[27] = test system: Human immunodeficiency virus 2; assay: Minimum inhibitory concentration required to reduce HIV-2 induced cytopathogenicity by 50%; assay type: functional

Compound | Cytotoxicity [1] | Cytotoxicity [2] | Cytotoxicity [3] | Cytotoxicity [4] | Cytotoxicity [5] | Cytotoxicity [6] | Cytotoxicity [7] | Cytotoxicity [8] | Cytotoxicity [9] | Cytotoxicity [10] | Cytotoxicity [11] | Cytotoxicity [12] | Cytotoxicity [13] | Cytotoxicity [14] | MIC [15] [µg/mL] | MIC [16] [µg/mL] | MIC [17] [µg/mL] | MIC [18] [µg/mL] | MIC [19] [µg/mL] | MIC [20] [µg/mL] | also measured
Nc1ccn(C2S[C@@H](COCc3ccccc3)[C@H](OCc3ccccc3)[C@H]2OCc2ccccc2)c(=O)n1 (stereo not given in full) | inactive | inactive | inactive | inactive | inactive | inactive | inactive | inactive | inactive | inactive | inactive | inactive | inactive | inactive |  |  |  |  |  |  | 
Nc1ncnc2c1ncn2[C@@H]1S[C@@H](CO)[C@H](O)[C@H]1O |  |  |  |  |  |  |  |  |  |  |  |  |  |  | 400 (≈ 1410 µM) | 400 (≈ 1410 µM) | 400 (≈ 1410 µM) | 400 (≈ 1410 µM) | 400 (≈ 1410 µM) | 400 (≈ 1410 µM) | MIC [21]: 400 µg/mL (≈ 1410 µM); MIC [22]: 400 µg/mL (≈ 1410 µM); MIC [23]: 400 µg/mL (≈ 1410 µM); MIC [24]: 400 µg/mL (≈ 1410 µM); MIC [25]: 400 µg/mL (≈ 1410 µM); MIC [26]: 400 µg/mL (≈ 1410 µM); MIC [27]: 400 µg/mL (≈ 1410 µM)
C[C@@]1(n2ccc(N)nc2=O)CS[C@H](CO)O1 | inactive | inactive | inactive | inactive | inactive | inactive | inactive | inactive | inactive | inactive | inactive | inactive | inactive | inactive |  |  |  |  |  |  | 
Cc1cn([C@H]2S[C@@H](CO)[C@H](O)[C@H]2O)c(=O)[nH]c1=O |  |  |  |  |  |  |  |  |  |  |  |  |  |  | 400 (≈ 1460 µM) | 400 (≈ 1460 µM) | 400 (≈ 1460 µM) | 400 (≈ 1460 µM) | 400 (≈ 1460 µM) | 400 (≈ 1460 µM) | MIC [21]: 400 µg/mL (≈ 1460 µM); MIC [22]: 400 µg/mL (≈ 1460 µM); MIC [23]: 400 µg/mL (≈ 1460 µM); MIC [24]: 400 µg/mL (≈ 1460 µM); MIC [25]: 400 µg/mL (≈ 1460 µM); MIC [26]: 400 µg/mL (≈ 1460 µM); MIC [27]: 400 µg/mL (≈ 1460 µM)
Nc1ncnc2c1ncn2C1S[C@@H](COCc2ccccc2)[C@H](OCc2ccccc2)[C@H]1OCc1ccccc1 (stereo not given in full) | inactive | inactive | inactive | inactive | inactive | inactive | inactive | inactive | inactive | inactive | inactive | inactive | inactive | inactive |  |  |  |  |  |  | 
O=c1nc(-n2cncn2)ccn1C1S[C@@H](COCc2ccccc2)[C@H](OCc2ccccc2)[C@H]1OCc1ccccc1 (stereo not given in full) | inactive | inactive | inactive | inactive | inactive | inactive | inactive | inactive | inactive | inactive | inactive | inactive | inactive | inactive |  |  |  |  |  |  | 
Nc1ncnc2c1ncn2[C@H]1S[C@@H](CO)[C@H](O)[C@H]1O |  |  |  |  |  |  |  |  |  |  |  |  |  |  | 400 (≈ 1410 µM) | 400 (≈ 1410 µM) | 400 (≈ 1410 µM) | 400 (≈ 1410 µM) | 400 (≈ 1410 µM) | 400 (≈ 1410 µM) | MIC [21]: 400 µg/mL (≈ 1410 µM); MIC [22]: 48 µg/mL (≈ 169 µM); MIC [23]: 400 µg/mL (≈ 1410 µM); MIC [24]: 400 µg/mL (≈ 1410 µM); MIC [25]: 400 µg/mL (≈ 1410 µM); MIC [26]: 400 µg/mL (≈ 1410 µM); MIC [27]: 400 µg/mL (≈ 1410 µM)
